Results reported in a melting point compilation (Tetko et al.; mined from patent text by program, amines drawn as free bases though some values may be those of a salt).

melting point [°C]	SMILES
134 to 136	FC(F)(F)c1ccc(C=Cc2nc(CNc3ccc(OCCCn4ccnn4)cc3)co2)cc1
149 to 152	CCOCc1nc2c(N)nc3cc(-c4cccc(C(=O)N5CCOCC5)c4)cnc3c2n1CC(C)(C)O
210 to 211	C[C@@H](O)CNC1=NS(=O)(=O)c2sc(Cl)cc2N1
225 to 226	CCn1c(=O)c2c(nc(C=Cc3cccc(OC)c3O)n2C)n(CC)c1=O
190 to 191	COc1cc(N)c(S(C)(=O)=O)cc1C(=O)NCC1CCCN1C (centres undefined)
75 to 76	COC(=O)CC(C(=O)OC)C(=O)c1ccccc1OC (centres undefined)
138 to 139	CC(C)Nc1nc(-c2ccccc2)c(-c2ccc(=O)n(C(C)C)n2)s1
164 to 166	COC(=O)c1cc2cc(OC)c(OCCCl)cc2[nH]1
176 to 178	O=C1c2cnc(N3CCN(Cc4ccccc4)CC3)nc2CN1C1CCCCC1
194	Nc1ccc2nc(-c3ccccc3)cc(OCC(=O)N3CCOCC3)c2c1
75 to 77	CCOC(=O)C(Cc1ccc(OCCN2CCC(C)(C)c3cc(C(=O)c4ccccc4)ccc32)cc1)Nc1ccccc1C(=O)c1ccccc1 (centres undefined)
129 to 130	COc1cccc([C@H]2O[C@H](CC(=O)N[C@@H](CCSC)C(=O)O)C(=O)N(CC(C)(C)CO)c3ccc(Cl)cc32)c1OC
140 to 142	O=C(O)C(O)=CC(=O)c1cn(Cc2ccccc2)cc(Cc2ccccc2)c1=O
245 to 247	CC(=O)Nc1ccc(-c2ccc3c(c2)C(C)(C)OC(=O)N3)cc1F
65 to 66	CCCc1c(SCCCOc2ccc(C(C)=O)c(OCCCC(=O)OCC)c2CCC)ccc(C(C)=O)c1O
95 to 96	CCC1(CCCCCBr)C(=O)Nc2cc(F)ccc21 (centres undefined)
68	CC(Oc1ccc(Oc2nc3ccc(Cl)cc3o2)cc1)C(=O)OC[Si](C)(C)C (centres undefined)
224 to 226	Cn1c(-c2ccc3ccccc3c2)nnc1S(C)=O (centres undefined)
197 to 198	CC(C)C(=O)Nc1c(OCc2ccccc2)cc(Br)cc1[N+](=O)[O-]
84 to 86	C=CCc1c(O)c(C(C)=O)cc(C(C)=O)c1O
110	O=C(CCC#Cc1cccc(CF)n1)Nc1ccc(F)cc1
187 to 188	COc1cc(OC)c2c(=O)[nH]c(-c3ccc4[nH]c(CN(C)C)cc4c3)nc2c1
203 to 205	CCc1oc2ccccc2c1C(=O)NCc1ccc2cc(O)ccc2c1
149 to 151	CCCN(CCC)CC1CCCCN1CCNC(=O)N1c2ccccc2NC(=O)c2cccnc21 (centres undefined)

melting point [°C]	SMILES
146 to 148	COC(=O)Cc1cc(C(=O)c2ccc(C#Cc3ccccc3)c(N)c2)sc1-c1ccccc1
172 to 175	CCOC(=O)C1CCCN2CCC3c4cc(Cl)ccc4N(N)C3C12 (centres undefined)
142	Cc1cccc(NC(=O)NCC(=O)N(CC(=O)OC(C)(C)C)c2ccc3c(c2)OCO3)c1
140 to 142	O=C(O)c1ccc2c(c1)COCC2
160 to 162	Cc1nc2c(N)nc3ccccc3c2n1CCCOCC#Cc1ccccc1
118 to 119	Cc1ccc(C(N)=O)cc1NC(=O)COCCO
183 to 185	Cn1cc(C=CC(=O)NC2CC2)c([N+](=O)[O-])n1
253 to 255	CC12CCC(C(=O)O)=CC1=CCC1C2CCC2(C)C(C(=O)N(C(=O)NC3CCCCC3)C3CCCCC3)CCC12 (centres undefined)
71 to 73	C#CCON=Cc1cc(Cl)ccc1O
88 to 90	COC(=O)COc1cccc2c(CCN=[N+]=[N-])c(C)oc12
84	CC(=NN(c1ccccc1)c1ccccc1)c1ccccn1
196 to 198	O=C1N(C(c2ccccc2)c2ccccc2)c2cccc(F)c2C12COc1cc3c(cc12)OCCO3 (centres undefined)
38 to 68	CN(CCC(=O)C(Cc1ccccc1)NC(=O)c1ccccc1)C(=O)N1CCCC1C(=O)O (centres undefined)
102 to 103	Brc1cccc2c1Cc1ccccc1-2
118 to 120	COc1nc(Br)nc(OC)n1
202	CC(=O)Nc1cc(C)cc(CCC(=O)O)n1
98	O=C(CCl)N1CCSC1CCc1ccccc1O (centres undefined)
158 to 160	Cc1cc(F)ccc1C1(c2ccc(S(C)(=O)=O)cc2C)CSC=C1c1ccc(S(C)(=O)=O)cc1 (centres undefined)
153 to 155	CCOc1ccccc1N(C[C@H]1CC[C@H](CN(C(=O)Nc2ccc(N(C)C)cc2)c2ccccc2OCC)CC1)C(=O)Nc1ccc(N(C)C)cc1
178 to 179	COC1OCC[C@@H]1NC(=O)[C@H](CC(C)C)NC(=O)[C@H](CC(C)C)NC(=O)c1ccc2c(c1)Nc1ccccc1O2 (some centres undefined)
94 to 95	C=CCOC(=O)NS(=O)(=O)CCc1cc(OCCCC)nn1Cc1ccc(Cl)cc1Cl
71 to 74	CN1C(=O)N(C[C@@H]2COC(=O)[C@@H]2CC2CCCC2)C(=O)C1(C)C (racemic)
156 to 158	CC(=O)c1nc(-c2ccc(C)nc2Cl)[nH]c1C
155 to 157	COC(=O)C(=O)c1ccc(OCCOc2ccc3ccccc3c2)cc1

melting point [°C]	SMILES
112 to 115	CCOC(=O)CCc1ccc(OCCN2CCCC2=O)cc1O
132 to 133	COc1cc(OC)cc(C(Cc2ccc(OC)c(OC)c2)=NNS(=O)(=O)c2ccc(C)cc2)c1
109 to 110	COC(=S)Cc1ccc(C(=O)CN2CCN(c3ccncc3)CC2)cc1
240 to 242	Cc1ccc(NC(=S)NCc2ccc3c(c2)CN(C2CCC(=O)NC2=O)C3=O)cc1Cl (centres undefined)
288 to 289	O=C(O)C1=Cc2cc(Cl)c(Oc3cccc(C(=O)O)c3)cc2OC1C(F)(F)F (centres undefined)
223 to 225	NCc1cccc2ccc(C(=O)O)cc12
181 to 185	CC(=O)N(C(C)=O)c1cc2c(cc1Cl)C(=O)C1(CCOC1=O)O2 (centres undefined)
107	CCOC(=O)C1[C@@H]2[C@@H](O)[C@@H]3O[C@H](c4cccc(OC)c4)OC[C@H]3O[C@H]12 (some centres undefined)
83 to 84	OCCc1ccc(CCO)cc1
> 285	Cc1cc(=O)oc2cc(NC(=O)C3C(=O)c4ccccc4S(=O)(=O)N3C)ccc12 (centres undefined)
84 to 87	Cc1nc[nH]c1CSCCN=C(NC#N)NCCCCCCCN
50 to 52	CCSc1cc(C)nc(SCC)c1NC(=O)CN1CCN(CCSc2nc3cccc([N+](=O)[O-])c3o2)CC1
125	CNC(=O)CCC(=O)c1c(O)cccc1OC
60 to 63	COc1cc(C(=O)Cl)ccc1OCCCCl
205 to 206	COc1cc2c(cc1OC(C)C)-c1c(-c3cccs3)c3c(n1CC2)C(=O)N(C(C)C)CCN(C(=O)OC(C)(C)C)C3
168 to 169	O=C(Nc1cccnn1)N1CCN(c2nccc(-c3ccc(F)cc3)n2)CC1
281 to 283	CCc1[nH]c2cc(C)c(Oc3ccc(OC(F)(F)F)cc3)cc2c(=O)c1C
135 to 136	O=CNC1=NN(c2ccccc2)C(c2ccc(Cl)cc2)C1 (centres undefined)
170 to 175	CC(C)(C)c1nc2cc(N3CCSCC3)c(N)cc2s1
121	CNC(=O)n1sc(OC2CCCCC2)nc1=O
121 to 123	N[C@H]1CC[C@@H](N2CCNC2=O)CC1
115 to 116	CC(C)=CC(n1cncn1)C(C)(O)C(C)(C)C (centres undefined)
217 to 220	Cc1nc2cc(Sc3cccc4cnccc34)c([N+](=O)[O-])cc2s1
142 to 145	C#CCN1C(=O)C(C)Oc2cc(F)c(N)cc21 (centres undefined)

melting point [°C]	SMILES
106 to 107	O=[N+]([O-])c1cc(CCl)ccc1Oc1ccc(OCc2ccccc2)cc1
177 to 179	O=C1[C@H]2CCC[C@H]2N(C(=O)CBr)c2ccccc2N1Cc1ccccc1 (relative stereo)
250	COc1ccc(-c2[nH]nc3c2C(=O)c2c(NC(=O)NNC(=O)c4cccc(N)c4)cccc2-3)cc1
220 to 224	COc1ccc(C(C)C)cc1-c1cc(-c2nnnn2C2CCN(C(=O)CC(C)C)CC2)c(O)cc1O
196 to 198	CCc1oc2ccc(C(C)C(=O)O)cc2c(=O)c1C (centres undefined)
76 to 77.5	O=C(O)Cc1cc(Cl)ccc1OCc1ccccc1
37.4	CCCCCCCCc1cnc(-c2ccc(OCC(C)OCCC)cc2)nc1 (centres undefined)
289	O=c1c(-c2ccc(F)cc2)coc2c(O)c(O)ccc12
140 to 143	CNCC1Cc2cc(-c3ccccc3)cc(-c3ccccc3OC)c2O1 (centres undefined)
226 to 228	CCCc1c(OCc2ccc(C(=O)O)cc2[N+](=O)[O-])ccc(C(C)=O)c1O
182 to 184	CC(C)Nc1nc2c(F)c(F)c(F)cc2[nH]1
183 to 187	CCc1c(-c2ccc(O)cc2)c2ccc3ccc(COCCN4CCCC4)c1n32
200 to 203	O=C(Nc1ccc(Cl)cn1)c1cc(Cl)ccc1NCC1CCN(C2CCSCC2)CC1
215 to 219	Cc1cc(-c2ccc(S(C)(=O)=O)cc2)n(-c2ccc(Br)cc2)c1C
181 to 183	Cc1nc(-c2ccc(C(F)(F)F)cc2)sc1CSc1ccc(OCC(=O)O)c2ccccc12
165 to 168	CNC(=O)N1CC(Oc2ccccn2)C1
110	CCOC(=O)CCCCCCC1NC(=O)NC1=O (centres undefined)
88 to 92	O[C@@H]1CCc2cc(F)c(F)cc2C1
96 to 98	CCOC(=O)/C=C/c1cc(O)ccc1Br
117 to 118	C=C[C@]1(C)C(=O)N(C)[C@H](C(C)(C)C)N1C(=O)c1ccccc1
93	CCN(C)C(=O)c1cc(-c2ccccc2)c2sccc2c1

SMILES	melting point [°C]
Nc1ccc(I)cc1C(=O)c1ccccc1Cl	120 to 122
CCOC(=O)c1nc(C)n2c1CN=C(c1ccccc1Cl)c1cc(Cl)ccc1-2	214 to 215
CN1C(=O)[C@H](NC(=O)c2ccccc2)N=C(c2ccccc2)c2ccccc21	224 to 225
c1ccc(NC[C@@H]2N[C@H]2c2ccccc2)cc1 (relative stereo)	96 to 97
COc1cc2c(CSCCN3CC=C(c4ccccc4)CC3)c[nH]c2cc1C(=O)O	168 to 171
NP(N)(=O)Oc1ccc2cccc(NS(=O)(=O)c3ccc([N+](=O)[O-])cc3)c2c1	234 to 235
